# Source: patent US20100189683A1, “Pulsatile Dosing of Gossypol for Treatment of Disease” (Ascenta Therapeutics, Inc., priority 2008, published 2010)
# System: patients with advanced cancer
# Assay: Phase I clinical trial, daily versus pulsatile dosing of (−)-gossypol: adverse events graded by NCI-CTCAE v3 (Daily N = 38, BID × 3 d N = 21, Weekly N = 12)
# Format: in vivo, human
# Procedure: A phase I clinical trial was carried out to compare the maximum tolerated dose and safety of daily (i.e., continuous) versus pulsatile (i.e., intermittent) dosing of (−)-gossypol in patients with advanced cancer. A secondary objective of this study was to identify any anti-tumor activity of (−)-gossypol. Patients were treated with increasing doses of (−)-gossypol according to the following dosing schedules: “Daily” dosing: 5 to 60 mg/day of (−)-gossypol on 21 days per 28 day cycle; “BID×3d” dosing: 30 to 80 mg BID of (−)-gossypol on 3 consecutive days (e.g., Monday-Tuesday-Wednesday) repeated every other week per 28 day cycle; and “Weekly” dosing: 80 to 200 mg of (−)-gossypol once weekly per 28 day cycle. Adverse events (AEs) were graded by NCI-CTCAE v3.
smiles,measurement,setting,value
Cc1cc2c(C(C)C)c(O)c(O)c(C=O)c2c(O)c1-c1c(C)cc2c(C(C)C)c(O)c(O)c(C=O)c2c1O [(−)-gossypol],ALT increase,"Daily, Grade ¾",5 (13) N (%)
same,AST increase,"Daily, Grade ¾",6 (13) N (%)
same,Abdominal discomfort,"Daily, Grade ¾",2 (5) N (%)
same,Abdominal distention,"Daily, Grade ¾",0 N (%)
same,Abdominal pain,"Daily, Grade ¾",1 (3) N (%)
same,Albumin decreased,"Daily, Grade ¾",0 N (%)
same,Alkaline phosphatase increase,"Daily, Grade ¾",0 N (%)
same,Anorexia or decreased appetite,"Daily, Grade ¾",1 (3) N (%)
same,Any AE,"Daily, Grade ¾",37 (98) N (%)
same,Back pain,"Daily, Grade ¾",0 N (%)
same,Constipation,"Daily, Grade ¾",0 N (%)
same,Cough,"Daily, Grade ¾",0 N (%)
same,Creatinine increased,"Daily, Grade ¾",0 N (%)
same,Creatinine phosphokinase increase,"Daily, Grade ¾",0 N (%)
same,Dehydration,"Daily, Grade ¾",2 (5) N (%)
same,Diarrhea,"Daily, Grade ¾",5 (13) N (%)
same,Dizziness,"Daily, Grade ¾",0 N (%)
same,Dry mouth,"Daily, Grade ¾",0 N (%)
same,Dysgeusia,"Daily, Grade ¾",0 N (%)
same,Dyspnea,"Daily, Grade ¾",3 (8) N (%)
same,Fatigue/Asthenia,"Daily, Grade ¾",4 (11) N (%)
same,Flatulence,"Daily, Grade ¾",0 N (%)
same,Headache,"Daily, Grade ¾",0 N (%)
same,Hepatic encephalopathy,"Daily, Grade ¾",0 N (%)
same,Hyperbilirubinaemia,"Daily, Grade ¾",1 (3) N (%)
same,Hyperkalemia,"Daily, Grade ¾",0 N (%)
same,Hypocalcemia,"Daily, Grade ¾",2 (5) N (%)
same,Hypokalemia,"Daily, Grade ¾",3 (8) N (%)
same,Hyponatremia,"Daily, Grade ¾",1 (3) N (%)
same,Infection,"Daily, Grade ¾",1 (3) N (%)
same,Insomnia,"Daily, Grade ¾",0 N (%)
same,Mental status changes,"Daily, Grade ¾",1 (3) N (%)
same,Nausea,"Daily, Grade ¾",5 (13) N (%)
same,Pain,"Daily, Grade ¾",0 N (%)
same,Pancreatitis,"Daily, Grade ¾",0 N (%)
same,Peripheral edema,"Daily, Grade ¾",0 N (%)
same,Pleural Effusion,"Daily, Grade ¾",2 (5) N (%)
same,Pneumatosis intestinalis,"Daily, Grade ¾",0 N (%)
same,Pneumonia,"Daily, Grade ¾",1 (3) N (%)
same,Proteinurea,"Daily, Grade ¾",0 N (%)
same,Pyrexia,"Daily, Grade ¾",1 (3) N (%)
same,Renal Failure,"Daily, Grade ¾",0 N (%)
same,Sinusitis,"Daily, Grade ¾",0 N (%)
same,Small intestinal obstruction (ileus),"Daily, Grade ¾",4 (11) N (%)
same,Troponin I or T increased,"Daily, Grade ¾",1 (3) N (%)
same,Urinary Tract Infection,"Daily, Grade ¾",0 N (%)
same,Vomiting,"Daily, Grade ¾",7 (18) N (%)
same,Weight decreased,"Daily, Grade ¾",0 N (%)
same,White blood cells increased,"Daily, Grade ¾",0 N (%)
same,ALT increase,"Weekly, Grade ½",3 (25) N (%)
same,AST increase,"Weekly, Grade ½",1 (8) N (%)
same,Abdominal discomfort,"Weekly, Grade ½",0 N (%)
same,Abdominal distention,"Weekly, Grade ½",3 (25) N (%)
same,Abdominal pain,"Weekly, Grade ½",2 (17) N (%)
same,Albumin decreased,"Weekly, Grade ½",0 N (%)
same,Alkaline phosphatase increase,"Weekly, Grade ½",2 (17) N (%)
same,Anorexia or decreased appetite,"Weekly, Grade ½",7 (58) N (%)
same,Any AE,"Weekly, Grade ½",10 (83) N (%)
same,Back pain,"Weekly, Grade ½",1 (8) N (%)
same,Constipation,"Weekly, Grade ½",4 (33) N (%)
same,Cough,"Weekly, Grade ½",0 N (%)
same,Creatinine increased,"Weekly, Grade ½",2 (17) N (%)
same,Creatinine phosphokinase increase,"Weekly, Grade ½",0 N (%)
same,Dehydration,"Weekly, Grade ½",2 (17) N (%)
same,Diarrhea,"Weekly, Grade ½",0 N (%)
same,Dizziness,"Weekly, Grade ½",2 (17) N (%)
same,Dry mouth,"Weekly, Grade ½",1 (8) N (%)
same,Dysgeusia,"Weekly, Grade ½",2 (17) N (%)
same,Dyspnea,"Weekly, Grade ½",1 (8) N (%)
same,Fatigue/Asthenia,"Weekly, Grade ½",8 (67) N (%)
same,Flatulence,"Weekly, Grade ½",1 (8) N (%)
same,Headache,"Weekly, Grade ½",1 (8) N (%)
same,Hepatic encephalopathy,"Weekly, Grade ½",0 N (%)
same,Hyperbilirubinaemia,"Weekly, Grade ½",2 (17) N (%)
same,Hyperkalemia,"Weekly, Grade ½",0 N (%)
same,Hypocalcemia,"Weekly, Grade ½",2 (17) N (%)
same,Hypokalemia,"Weekly, Grade ½",2 (17) N (%)
same,Hyponatremia,"Weekly, Grade ½",0 N (%)
same,Infection,"Weekly, Grade ½",0 N (%)
same,Insomnia,"Weekly, Grade ½",3 (25) N (%)
same,Mental status changes,"Weekly, Grade ½",0 N (%)
same,Nausea,"Weekly, Grade ½",2 (17) N (%)
same,Pain,"Weekly, Grade ½",0 N (%)
same,Pancreatitis,"Weekly, Grade ½",0 N (%)
same,Peripheral edema,"Weekly, Grade ½",3 (25) N (%)
same,Pleural Effusion,"Weekly, Grade ½",0 N (%)
same,Pneumatosis intestinalis,"Weekly, Grade ½",0 N (%)
same,Pneumonia,"Weekly, Grade ½",0 N (%)
same,Proteinurea,"Weekly, Grade ½",2 (17) N (%)
same,Pyrexia,"Weekly, Grade ½",0 N (%)
same,Renal Failure,"Weekly, Grade ½",1 (8) N (%)
same,Sinusitis,"Weekly, Grade ½",0 N (%)
same,Small intestinal obstruction (ileus),"Weekly, Grade ½",0 N (%)
same,Troponin I or T increased,"Weekly, Grade ½",1 (8) N (%)
same,Urinary Tract Infection,"Weekly, Grade ½",2 (17) N (%)
same,Vomiting,"Weekly, Grade ½",0 N (%)
same,Weight decreased,"Weekly, Grade ½",2 (17) N (%)
same,White blood cells increased,"Weekly, Grade ½",0 N (%)
same,ALT increase,"Weekly, Grade ¾",1 (8) N (%)
same,AST increase,"Weekly, Grade ¾",4 (33) N (%)
same,Abdominal discomfort,"Weekly, Grade ¾",0 N (%)
same,Abdominal distention,"Weekly, Grade ¾",0 N (%)
same,Abdominal pain,"Weekly, Grade ¾",0 N (%)
same,Albumin decreased,"Weekly, Grade ¾",1 (8) N (%)
same,Alkaline phosphatase increase,"Weekly, Grade ¾",1 (8) N (%)
same,Anorexia or decreased appetite,"Weekly, Grade ¾",0 N (%)
same,Any AE,"Weekly, Grade ¾",10 (48) N (%)
same,Back pain,"Weekly, Grade ¾",0 N (%)
same,Constipation,"Weekly, Grade ¾",0 N (%)
same,Cough,"Weekly, Grade ¾",0 N (%)
same,Creatinine increased,"Weekly, Grade ¾",1 (8) N (%)
same,Creatinine phosphokinase increase,"Weekly, Grade ¾",1 (8) N (%)
same,Dehydration,"Weekly, Grade ¾",2 (17) N (%)
same,Diarrhea,"Weekly, Grade ¾",0 N (%)
same,Dizziness,"Weekly, Grade ¾",0 N (%)
same,Dry mouth,"Weekly, Grade ¾",0 N (%)
same,Dysgeusia,"Weekly, Grade ¾",0 N (%)
same,Dyspnea,"Weekly, Grade ¾",1 (8) N (%)
same,Fatigue/Asthenia,"Weekly, Grade ¾",1 (8) N (%)
same,Flatulence,"Weekly, Grade ¾",0 N (%)
same,Headache,"Weekly, Grade ¾",0 N (%)
same,Hepatic encephalopathy,"Weekly, Grade ¾",1 (8) N (%)
same,Hyperbilirubinaemia,"Weekly, Grade ¾",2 (17) N (%)
same,Hyperkalemia,"Weekly, Grade ¾",0 N (%)
same,Hypocalcemia,"Weekly, Grade ¾",0 N (%)
same,Hypokalemia,"Weekly, Grade ¾",1 (8) N (%)
same,Hyponatremia,"Weekly, Grade ¾",0 N (%)
same,Infection,"Weekly, Grade ¾",1 (8) N (%)
same,Insomnia,"Weekly, Grade ¾",0 N (%)
same,Mental status changes,"Weekly, Grade ¾",1 (8) N (%)
same,Nausea,"Weekly, Grade ¾",0 N (%)
same,Pain,"Weekly, Grade ¾",0 N (%)
same,Pancreatitis,"Weekly, Grade ¾",0 N (%)
same,Peripheral edema,"Weekly, Grade ¾",0 N (%)
same,Pleural Effusion,"Weekly, Grade ¾",1 (8) N (%)
same,Pneumatosis intestinalis,"Weekly, Grade ¾",1 (8) N (%)
same,Pneumonia,"Weekly, Grade ¾",0 N (%)
same,Proteinurea,"Weekly, Grade ¾",0 N (%)
same,Pyrexia,"Weekly, Grade ¾",1 (8) N (%)
same,Renal Failure,"Weekly, Grade ¾",0 N (%)
same,Sinusitis,"Weekly, Grade ¾",0 N (%)
same,Small intestinal obstruction (ileus),"Weekly, Grade ¾",2 (8) N (%)
same,Troponin I or T increased,"Weekly, Grade ¾",2 (17) N (%)
same,Urinary Tract Infection,"Weekly, Grade ¾",0 N (%)
same,Vomiting,"Weekly, Grade ¾",0 N (%)
same,Weight decreased,"Weekly, Grade ¾",0 N (%)
same,White blood cells increased,"Weekly, Grade ¾",0 N (%)
same,"Percentage of AEs, particularly Grade 3/4 AEs",pulsatile dosing (BID×3d and Weekly) as compared to continuous daily dosing,reduced percentage of AEs
